From ChEMBL document CHEMBL1201862, “PubChem BioAssay data set” (2004)
Activity calls are given as the source filed them.

Tests used:
[1] = target: T1, DNA repair protein RAD52 homolog (Homo sapiens, UniProt P43351); format: functional, biochemical
T1 sequence (P43351 whole entry): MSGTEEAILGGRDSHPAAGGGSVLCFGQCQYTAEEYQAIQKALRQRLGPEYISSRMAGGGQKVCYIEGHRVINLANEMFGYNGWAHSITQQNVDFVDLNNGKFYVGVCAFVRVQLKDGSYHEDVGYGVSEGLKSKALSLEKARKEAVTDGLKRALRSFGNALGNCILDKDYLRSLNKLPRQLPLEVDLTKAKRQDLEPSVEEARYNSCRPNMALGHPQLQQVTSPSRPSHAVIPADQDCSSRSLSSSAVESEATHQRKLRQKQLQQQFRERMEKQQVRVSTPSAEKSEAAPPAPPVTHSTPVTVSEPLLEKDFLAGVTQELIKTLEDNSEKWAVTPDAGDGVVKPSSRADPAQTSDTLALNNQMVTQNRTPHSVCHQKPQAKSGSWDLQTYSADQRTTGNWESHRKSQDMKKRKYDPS

[2] = inhibitors of SNCA 5'UTR-driven reporter translation, confirmation, H4 neuroglioma cells, luminescence (AID 1988); format: functional, cell-based
[3] = inhibitors of firefly luciferase expression or activity, dose response, H4 neuroglioma cells, luminescence (AID 1990); format: functional, cell-based
[4] = Shn3 3'UTR reporter inhibitors, dose response, cell-based, Clone20 osteoblasts, firefly luciferase, cherry-picked (AID 624132); format: functional;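 further: firefly luciferase luminescence from reporter carrying the Shn3 3'UTR in osteoblasts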
[5] = Luminescence Cell-Based Dose Response HTS to Identify Inhibitors of 5'UTR Stem-Loop Driven Prion Protein mRNA Translation in H4 Neuroglioblastoma Cells. [Related pubchem assays: 1827 (Project Summary), 1813 (Primary HTS)]; format: functional
[6] = cytotoxicity toward NIH3T3 fibroblasts, dose response, counter-screen, cell-based, ATP luminescence, mouse fibroblasts (AID 2010); format: functional;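 further: cells exposed to compound for about 90 hours before reading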
[7] = inhibitors of intracellular T. cruzi replication, confirmation, NIH3T3 host cells, beta-gal luminescence (AID 2044); format: functional, cell-based;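 further: intracellular parasites grown in NIH/3T3 mouse fibroblasts as host cells; luminescent beta-galactosidase reporter signal from transgenic T. cruzi replicating inside host cells; inhibitors lower the luminescence signal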
[8] = control 3'UTR Renilla luciferase suppression, dose response, counter-screen for Shn3 inhibitor project, cell-based, Clone20-Shn3RL, cherry-picked (AID 624133); format: functional
[9] = HepG2 cell cytotoxicity, dose response, cytotoxicity control for Shn3 inhibitor project, CellTiter-Glo, cherry-picked (AID 624134); format: functional, cell-based
[10] = A Cell Based Secondary Assay To Explore Cytotoxicity of Compounds that Sensitize Mycobacterium Tuberculosis to Beta-Lactam Antibiotics.; format: functional
[11] = target: T2, Protein RecA (Mycobacterium tuberculosis, UniProt P9WHJ3); experiment: Fluorescence Cell-Free Homogeneous Dose Retest to Identify Inhibitors of RecA-Intein Splicing Activity. [Related pubchem assays (depositor defined):AID2097, AID2223, AID489010, AID492950]; format: functional
T2 sequence (P9WHJ3 whole entry): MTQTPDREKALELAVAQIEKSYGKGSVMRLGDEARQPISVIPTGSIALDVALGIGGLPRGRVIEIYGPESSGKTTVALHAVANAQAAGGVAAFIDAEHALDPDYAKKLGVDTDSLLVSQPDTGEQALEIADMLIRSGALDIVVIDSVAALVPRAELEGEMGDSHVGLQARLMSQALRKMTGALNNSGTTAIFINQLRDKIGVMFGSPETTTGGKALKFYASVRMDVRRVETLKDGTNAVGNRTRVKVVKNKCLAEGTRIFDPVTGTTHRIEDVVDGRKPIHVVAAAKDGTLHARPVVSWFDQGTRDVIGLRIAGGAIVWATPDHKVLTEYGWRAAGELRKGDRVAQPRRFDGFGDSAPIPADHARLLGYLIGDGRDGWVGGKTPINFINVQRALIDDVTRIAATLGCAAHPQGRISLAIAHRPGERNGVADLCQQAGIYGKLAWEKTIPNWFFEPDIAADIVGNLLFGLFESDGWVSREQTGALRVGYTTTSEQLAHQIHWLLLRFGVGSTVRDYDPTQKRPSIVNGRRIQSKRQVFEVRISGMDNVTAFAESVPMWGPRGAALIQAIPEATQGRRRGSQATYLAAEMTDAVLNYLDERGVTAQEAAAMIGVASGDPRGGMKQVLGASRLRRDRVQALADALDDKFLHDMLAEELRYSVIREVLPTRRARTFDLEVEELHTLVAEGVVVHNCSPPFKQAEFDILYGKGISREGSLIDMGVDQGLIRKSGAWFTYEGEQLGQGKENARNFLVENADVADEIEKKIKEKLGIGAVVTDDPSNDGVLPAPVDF

[12] = target: T3, Replicative DNA helicase DnaB (Mycobacterium tuberculosis, UniProt P9WMR3); experiment: DnaB intein splicing inhibitors, dose response, biochemical, cell-free fluorescence (AID 449749); format: functional
T3 sequence (P9WMR3 whole entry): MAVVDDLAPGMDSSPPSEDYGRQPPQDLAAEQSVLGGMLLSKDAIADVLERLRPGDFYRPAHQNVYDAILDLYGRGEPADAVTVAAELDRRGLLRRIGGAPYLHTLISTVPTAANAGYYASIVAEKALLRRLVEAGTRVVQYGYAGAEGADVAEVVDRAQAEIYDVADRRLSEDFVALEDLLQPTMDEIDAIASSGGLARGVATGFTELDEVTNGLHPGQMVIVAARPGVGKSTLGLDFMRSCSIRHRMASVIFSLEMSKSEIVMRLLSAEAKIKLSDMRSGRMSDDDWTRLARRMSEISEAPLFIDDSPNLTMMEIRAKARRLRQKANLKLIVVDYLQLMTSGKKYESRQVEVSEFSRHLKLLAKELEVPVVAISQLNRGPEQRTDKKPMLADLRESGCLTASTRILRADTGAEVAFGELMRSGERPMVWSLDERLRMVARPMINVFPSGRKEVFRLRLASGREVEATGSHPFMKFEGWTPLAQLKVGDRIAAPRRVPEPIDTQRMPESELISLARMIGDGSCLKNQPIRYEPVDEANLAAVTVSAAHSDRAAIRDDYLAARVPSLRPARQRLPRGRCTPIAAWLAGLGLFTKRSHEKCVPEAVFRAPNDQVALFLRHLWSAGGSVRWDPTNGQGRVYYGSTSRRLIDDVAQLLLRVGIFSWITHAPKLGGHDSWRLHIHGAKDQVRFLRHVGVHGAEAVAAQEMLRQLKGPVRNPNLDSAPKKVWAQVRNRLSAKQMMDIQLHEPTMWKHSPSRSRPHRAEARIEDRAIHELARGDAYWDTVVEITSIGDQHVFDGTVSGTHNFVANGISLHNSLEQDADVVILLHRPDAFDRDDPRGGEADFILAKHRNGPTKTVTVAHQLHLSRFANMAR

[13] = target: T4, Protein skinhead-1 (Caenorhabditis elegans, UniProt P34707); format: functional
T4 sequence (P34707 whole entry): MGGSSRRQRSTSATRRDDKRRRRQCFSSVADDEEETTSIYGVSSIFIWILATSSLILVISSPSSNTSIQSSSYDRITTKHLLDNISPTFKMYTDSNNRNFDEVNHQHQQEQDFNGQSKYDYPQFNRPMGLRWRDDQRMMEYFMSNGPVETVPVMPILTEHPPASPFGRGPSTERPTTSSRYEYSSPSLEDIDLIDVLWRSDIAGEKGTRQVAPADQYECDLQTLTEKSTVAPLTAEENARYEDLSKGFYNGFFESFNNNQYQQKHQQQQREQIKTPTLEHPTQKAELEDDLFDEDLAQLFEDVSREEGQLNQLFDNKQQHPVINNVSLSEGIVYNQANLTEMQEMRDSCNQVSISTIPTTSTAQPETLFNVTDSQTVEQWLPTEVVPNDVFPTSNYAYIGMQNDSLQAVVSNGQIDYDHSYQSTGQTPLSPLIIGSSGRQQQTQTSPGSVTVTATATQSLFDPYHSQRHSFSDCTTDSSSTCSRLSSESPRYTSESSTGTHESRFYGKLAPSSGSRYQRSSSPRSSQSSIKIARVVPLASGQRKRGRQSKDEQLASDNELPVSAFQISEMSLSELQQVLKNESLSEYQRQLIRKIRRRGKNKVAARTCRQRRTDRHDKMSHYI

[14] = tested on: BJ; experiment: cells; format: functional, cell-based; conditions: Homo sapiens
[15] = cytotoxicity toward DRD oncogenic fibroblasts, dose response, cell-based, non-viral oncogenic, luminescence (AID 1934); format: functional; conditions: Homo sapiens
[16] = tested on: BJ; experiment: cytotoxicity toward BJ-TERT-LT-ST fibroblasts, dose response, cell-based, RAS-independent, luminescence (AID 1935); format: functional; conditions: Homo sapiens;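 further: BJ fibroblasts immortalized with TERT plus LT and ST oncogenes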
[17] = cytotoxicity in HEK-293T cells, dose response, cytotoxicity control for TCR NF-kB inhibitor project, luminescence, T-cell screen hits (AID 489026); format: functional, cell-based;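 further: cells exposed to compound about 14 hours before the viability readout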
[18] = tested on: BJ; experiment: cytotoxicity toward BJ-TERT fibroblasts, dose response, cell-based, RAS-independent, luminescence (AID 1933); format: functional; conditions: Homo sapiens
[19] = target: T5, Heat shock factor protein 1 (Mus musculus, UniProt P38532); experiment: HSF1 potentiators in luciferase reporter cells, confirmation, cell-based, NIH3T3, luminescence, dose retest (AID 435004); format: functional;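 further: stress induced by proteasome inhibitor MG132 added 30 min after compound; luciferase reporter driven by HSF1 response element in NIH3T3 cells; actives raise luminescence as potentiators of the MG132 stress response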
T5 sequence (P38532 whole entry): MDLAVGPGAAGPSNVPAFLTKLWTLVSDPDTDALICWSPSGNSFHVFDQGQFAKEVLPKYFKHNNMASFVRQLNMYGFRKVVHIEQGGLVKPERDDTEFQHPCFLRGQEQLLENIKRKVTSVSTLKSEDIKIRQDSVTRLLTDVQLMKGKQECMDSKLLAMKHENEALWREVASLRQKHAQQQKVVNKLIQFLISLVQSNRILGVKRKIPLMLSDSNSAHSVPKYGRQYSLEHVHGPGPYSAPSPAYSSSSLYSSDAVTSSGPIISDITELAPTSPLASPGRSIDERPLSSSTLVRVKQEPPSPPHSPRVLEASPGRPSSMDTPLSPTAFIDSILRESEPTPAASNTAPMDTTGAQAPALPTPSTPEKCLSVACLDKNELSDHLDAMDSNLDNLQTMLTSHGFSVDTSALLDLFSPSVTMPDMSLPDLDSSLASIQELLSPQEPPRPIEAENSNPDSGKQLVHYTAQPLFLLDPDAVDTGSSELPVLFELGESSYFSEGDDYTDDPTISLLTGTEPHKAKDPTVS

[20] = tested on: INS1; experiment: beta cell apoptosis inhibitors, cytokine rescue, dose response, luminescence, retest (AID 449756); format: functional, cell-based; conditions: Rattus norvegicus;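 further: cell death triggered by IL-1 beta plus TNF-alpha plus IFN-gamma mixture; protective hits raise ATP signal compared with cytokine alone wells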
[21] = HepG2 cell cytotoxicity, dose response, cytotoxicity control, plate reader, cherry-pick, antagonist series (AID 743416); format: functional, cell-based
[22] = A549 cell cytotoxicity, dose response, cytotoxicity control, plate reader, cherry-pick, antagonist series (AID 743412); format: functional, cell-based
[23] = MC4R antagonists, dose response, counter-screen for LGR2 antagonist project, cell-based, plate reader, cherry pick (AID 743444); format: functional;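 further: transfected HEK 293 cells stimulated with alpha-MSH peptide; potency of inhibitors of the alpha-MSH evoked signal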
[24] = LGR2 antagonists, dose response, cell-based, HEK293, CRE-luciferase reporter, cherry pick, set 2 (AID 743343); format: functional;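 further: transfected cells were stimulated with diluted bursicon conditioned medium after compound addition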
[25] = inhibitors of clade B AD8 Env fusion, dose response, cell-based, cherry-pick (AID 652062); format: functional;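 further: luciferase signal from cell-cell fusion driven by HIV-1 clade B AD8 Env; potency is for inhibitors of fusion seen as a drop in luminescence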
[26] = ZM109 Env clade C HIV-1 fusion inhibitors, dose response, HeLa effector, CEM target cells, luciferase, cherry-pick (AID 652058); format: functional, cell-based

CCN(CC)CCCN(C(=O)c1cccc(C)c1)c1nc(-c2ccc(OC)cc2)cs1
AC50 [1]: 17.2 µM (active)

CCOC(=O)c1c(CSc2ccc(CC)cc2)oc2ccc(O)c(CN(C)C)c12
EC50 [2]: > 120 µM (not active) | EC50 [3]: > 120 µM (not active) | AC50 [1]: 15.3 µM (active) | AC50 [4]: 3.05 µM (active) | EC50 [5]: > 120 µM (not active) | EC50 [6]: > 30 µM (not active) | EC50 [7]: 2.81 µM (active) | AC50 [8]: 14.1 µM (active) | AC50 [9]: 30.8 µM (active)

O=C(Nc1ccc(C(F)(F)F)cc1)c1cc(-c2cccnc2)nc2ccc(Br)cc12
CC50 [10]: > 40 µM (active)

Brc1ccc(CNc2ccc3ncccc3c2)cc1
EC50 [11]: > 380 µM (inactive) | AC50 [12]: > 380 µM (inactive) | CC50 [10]: > 40 µM (active)

C[C@H](NC(=O)c1[nH]cnc1C(=O)Nc1ccc(Cl)cc1)C(=O)OC(C)(C)C
IC50 [13]: > 100 µM (inactive) | CC50 [10]: 16.7 µM (active)

COc1cc(CC(=O)OCC(=O)c2ccc3c(c2)OCCO3)cc(OC)c1OC
EC50 [2]: 4.99 µM (inconclusive) | EC50 [3]: 5.8 µM (inconclusive) | EC50 [14]: 15.1 µM (active) | EC50 [15]: 2.47 µM (active) | EC50 [16]: 1.62 µM (inconclusive) | EC50 [5]: 5.66 µM (active) | IC50 [17]: > 80 µM (inactive) | EC50 [18]: 2.14 µM (active)

O=C1N=C(Nc2nc3ccccc3[nH]2)c2ccccc21
EC50 [14]: 24.8 µM (inconclusive) | EC50 [19]: 0.987 µM (inconclusive) | EC50 [15]: 14.9 µM (active) | EC50 [16]: 19.3 µM (active) | AC50 [20]: 3 µM (active) | EC50 [18]: 12.5 µM (active)

CCCOc1ccc(F)cc1-c1cc(C(=O)Nc2cc(OC)c(OC)c(OC)c2)[nH]n1
AC50 [21]: > 52 µM (inactive) | AC50 [22]: > 52 µM (inactive) | AC50 [23]: 31.2 µM (active) | AC50 [24]: 24 µM (active)

COc1ccc(S(=O)(=O)N[C@@H]2C=C[C@H](CC(=O)N3CCC(Cc4ccccc4)CC3)O[C@@H]2CO)cc1
AC50 [25]: 32.6 µM (active) | AC50 [26]: 19 µM (active)
